The results in this text go back to patent US10710980B2, “Aminopyridine derivatives and their use as selective ALK-2 inhibitors” (priority 2016, dated 2020).

Usually IC50 stands for the concentration that inhibits the measured activity by half.

The target of assay [1] is T1, wild-type ALK2 (aa172-499) (Homo sapiens (Human), UniProt Q04771). Put plainly: ADPGlo biochemical autophosphorylation assay, ALK2. Conditions: 15 μm ATP, 60 min at 32° C.
For the next assay, the target named is ALK3 (aa198-525) (Homo sapiens (Human), UniProt P36894). Put plainly: ADPGlo biochemical autophosphorylation assay, ALK3. Conditions: 15 μm ATP, 60 min at 32° C. A general note: ADP-Glo turns the ADP formed in a reaction into a luminescent signal.
ALK3 (aa198-525), sequence (P36894 198-525): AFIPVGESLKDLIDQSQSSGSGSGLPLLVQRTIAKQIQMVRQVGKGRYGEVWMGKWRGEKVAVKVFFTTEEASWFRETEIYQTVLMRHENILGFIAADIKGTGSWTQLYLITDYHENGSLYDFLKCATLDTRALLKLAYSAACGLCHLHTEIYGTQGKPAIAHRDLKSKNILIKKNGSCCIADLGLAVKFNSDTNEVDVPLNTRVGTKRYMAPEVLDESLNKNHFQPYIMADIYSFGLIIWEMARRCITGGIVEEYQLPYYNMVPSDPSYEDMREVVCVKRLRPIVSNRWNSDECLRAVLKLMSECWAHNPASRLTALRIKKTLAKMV
Assay [2] deals with T1, wild-type ALK2 (aa172-499). Kind of assay: Caliper biochemical peptide phosphorylation assay, ALK2. As to conditions: 15 μm ATP, 60 min at 30° C.; read-out: ALK2 EPK (IC50).
In a further assay the target is ALK1 (aa166-493) (Homo sapiens (Human), UniProt P37023). Kind of assay: Caliper biochemical peptide phosphorylation assay, ALK1. Conditions: 15 μm ATP, 60 min at 30° C.; read-out: ALK1 EPK (IC50).
ALK1 (aa166-493), sequence (P37023 166-493): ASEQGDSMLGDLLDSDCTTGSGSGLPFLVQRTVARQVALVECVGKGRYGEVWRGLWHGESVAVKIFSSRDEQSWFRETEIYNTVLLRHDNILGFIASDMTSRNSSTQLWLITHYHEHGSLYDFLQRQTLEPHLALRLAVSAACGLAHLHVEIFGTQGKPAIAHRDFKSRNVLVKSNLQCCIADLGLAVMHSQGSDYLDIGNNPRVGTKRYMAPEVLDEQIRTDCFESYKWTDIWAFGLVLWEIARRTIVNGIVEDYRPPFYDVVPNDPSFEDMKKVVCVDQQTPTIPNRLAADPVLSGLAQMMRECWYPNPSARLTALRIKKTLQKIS
The target in another assay is ALK5 (aa162-503) (Homo sapiens (Human), UniProt P36897). Put plainly: Caliper biochemical peptide phosphorylation assay, ALK5. As to conditions: 15 μm ATP, 60 min at 30° C.; read-out: ALK5 EPK (IC50).
ALK5 (aa162-503), sequence (P36897 162-503): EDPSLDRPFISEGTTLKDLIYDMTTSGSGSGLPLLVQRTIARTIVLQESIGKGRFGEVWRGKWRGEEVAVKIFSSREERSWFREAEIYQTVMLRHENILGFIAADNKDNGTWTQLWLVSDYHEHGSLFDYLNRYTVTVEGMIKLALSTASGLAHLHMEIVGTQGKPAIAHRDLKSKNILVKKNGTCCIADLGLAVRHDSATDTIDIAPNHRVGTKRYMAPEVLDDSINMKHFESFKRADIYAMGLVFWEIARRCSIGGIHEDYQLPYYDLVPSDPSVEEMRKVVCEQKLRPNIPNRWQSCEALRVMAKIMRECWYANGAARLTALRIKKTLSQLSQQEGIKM
Another assay deals with ALK6 (aa168-495) (Homo sapiens (Human), UniProt O00238). Kind of assay: Caliper biochemical peptide phosphorylation assay, ALK6. Conditions: 15 μm ATP, 60 min at 30° C.; read-out: ALK6 EPK (IC50).
ALK6 (aa168-495), sequence (O00238 168-495): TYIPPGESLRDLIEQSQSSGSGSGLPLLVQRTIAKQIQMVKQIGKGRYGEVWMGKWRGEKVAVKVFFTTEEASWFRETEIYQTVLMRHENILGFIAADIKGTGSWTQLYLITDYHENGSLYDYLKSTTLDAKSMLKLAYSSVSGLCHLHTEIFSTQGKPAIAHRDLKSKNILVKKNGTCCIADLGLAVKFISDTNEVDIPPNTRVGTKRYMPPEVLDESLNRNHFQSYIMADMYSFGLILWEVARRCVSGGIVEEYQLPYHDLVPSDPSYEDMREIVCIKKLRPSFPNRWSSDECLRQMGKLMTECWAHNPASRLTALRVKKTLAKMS
In assay [3] the test system is BMP response element (BRE) luciferase reporter in HuH7 cells, BMP6 stimulated. Put plainly: BMP signaling reporter gene assay. In kind it is cell-based. Conditions: Homo sapiens, Huh-7; HuH7 BRE-luciferase, BMP6 100 ng/ml, 5 hours; read-out: MSD BMP RGA IC50. (Reporter assays use an easily measured gene product as a stand-in for the process of interest.)

T1 sequence (Q04771 172-499): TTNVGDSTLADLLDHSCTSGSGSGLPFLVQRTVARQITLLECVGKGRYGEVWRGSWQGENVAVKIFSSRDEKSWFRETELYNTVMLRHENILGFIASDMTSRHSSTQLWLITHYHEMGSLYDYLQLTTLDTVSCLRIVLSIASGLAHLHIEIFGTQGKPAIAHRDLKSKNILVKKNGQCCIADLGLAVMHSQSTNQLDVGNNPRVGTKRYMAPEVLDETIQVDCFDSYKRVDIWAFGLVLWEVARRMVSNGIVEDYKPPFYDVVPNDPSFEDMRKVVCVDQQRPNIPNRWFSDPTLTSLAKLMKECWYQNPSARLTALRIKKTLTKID

On to `Nc1ncc(-c2ccc([C@@]34C[C@@H]3CN(C3CCC(F)(F)CC3)C4)cc2)cc1C(=O)NC12CCC(O)(CC1)CC2` [Example 80, 2-amino-5-(4-((1R,5S)-3-(4,4-difluorocyclohexyl)-3-azabicyclo[3.1.0]hexan-1-yl)phenyl)-N-(4-hydroxybicyclo[2.2.2]octan-1-yl)nicotinamide], for which the IC50 came to 0.058 µM in assay [1]; 1.8 µM at ALK3 (aa198-525); 0.087 µM in assay [2]; 0.68 µM on ALK1 (aa166-493); 6.6 µM at ALK5 (aa162-503); 4.6 µM on ALK6 (aa168-495). Moreover, the IC50 in assay [3] came out at 0.058 µM.

Consider `Cc1cc(CN2CCC[C@H]2C)ccc1-c1cnc(N)c(C(=O)N[C@H]2CC[C@](C)(O)CC2)c1` [Example 87, 2-amino-N-((1r,4R)-4-hydroxy-4-methylcyclohexyl)-5-(2-methyl-4-(((R)-2-methylpyrrolidin-1-yl)methyl)phenyl)nicotinamide], for which the IC50 is 0.88 µM in assay [1]; 15.1 µM against ALK3 (aa198-525); 0.63 µM in assay [2]; 10 µM at ALK1 (aa166-493); 10 µM at ALK5 (aa162-503); 10 µM at ALK6 (aa168-495). Moreover, the IC50 in assay [3] was 3.55 µM.

Turning to `Nc1ncc(-c2ccc([C@@]34C[C@@H]3CN(CCC(F)(F)F)C4)cc2)cc1C(=O)N[C@H]1CC[C@H](O)CC1` [Example 47, 2-amino-N-((1r,4R)-4-hydroxycyclohexyl)-5-(4-((1R,5S)-3-(3,3,3-trifluoropropyl)-3-azabicyclo[3.1.0]hexan-1-yl)phenyl)nicotinamide], the IC50 in assay [1] came to 0.021 µM; against ALK3 (aa198-525) it was 1.3 µM; in assay [2] it was 0.025 µM; on ALK1 (aa166-493), 0.29 µM; on ALK5 (aa162-503) it was 4.7 µM; at ALK6 (aa168-495), 3.5 µM. Besides, the IC50 in assay [3] worked out at 0.13 µM.

Take `C[C@H](c1ccc(-c2cnc(N)c(C(=O)N[C@]3(C)CC[C@@H](O)CC3)c2)cc1)N1CC2(COC2)C1` [Example 86, 5-(4-((R)-1-(2-oxa-6-azaspiro[3.3]heptan-6-yl)ethyl)phenyl)-2-amino-N-((1r,4R)-4-hydroxy-1-methylcyclohexyl)nicotinamide]: the IC50 in assay [1] turned out to be 0.11 µM; against ALK3 (aa198-525), 8.2 µM; in assay [2], 0.205 µM; at ALK1 (aa166-493) it was 2.3 µM; on ALK5 (aa162-503) it was 10 µM; at ALK6 (aa168-495) it was 10 µM. Moreover, in assay [3], the IC50 came out at 1.08 µM.

As to `C[C@]1(O)CC[C@H](NC(=O)c2cc(-c3ccc([C@@]45C[C@@H]4CN(C4CCC(F)(F)CC4)C5)cc3)cnc2N)CC1` [Example 82, 2-amino-5-(4-((1R,5S)-3-(4,4-difluorocyclohexyl)-3-azabicyclo[3.1.0]hexan-1-yl)phenyl)-N-((1r,4R)-4-hydroxy-4-methylcyclohexyl)nicotinamide], the IC50 in assay [1] came to 0.082 µM; against ALK3 (aa198-525), 9.5 µM; in assay [2], 0.117 µM; at ALK1 (aa166-493) it was 1.6 µM; on ALK5 (aa162-503), 10 µM; at ALK6 (aa168-495), 10 µM. The IC50 in assay [3] is 0.056 µM.

For `Nc1ncc(-c2ccc([C@@]34C[C@@H]3CN(C3CCS(=O)(=O)CC3)C4)cc2)cc1C(=O)N[C@H]1CC[C@H](O)CC1` [Example 44, 2-amino-5-(4-((1R,5S)-3-(1,1-dioxidotetrahydro-2H-thiopyran-4-yl)-3-azabicyclo[3.1.0]hexan-1-yl)phenyl)-N-((1r,4R)-4-hydroxycyclohexyl)nicotinamide], the IC50 in assay [1] is 0.018 µM; against ALK3 (aa198-525) it was 0.43 µM; in assay [2], 0.024 µM; on ALK1 (aa166-493) it was 0.17 µM; at ALK5 (aa162-503), 3.2 µM; on ALK6 (aa168-495), 2 µM. Moreover, the IC50 in assay [3] was 0.365 µM.
